In PubChem BioAssay AID2060506 (Molecular Pharmacology Branch, DTP, NCI, 2025):
pIC50: −log10 of the molar value.

System: 598228-144-R-J1-PDC complex spheroid viability
Assay: Anticancer human tumor 598228-144-R-J1-PDC patient-derived serous endometrial adenocarcinoma cell line growth inhibition [GQUAD]
Details: for pIC50: curve of first compound; for viability, T/C: stronger effect = lower value; active = viability on the fitted dose curve at most 10% of control; inactive = the rest
Outline: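 Viability of tumor cells grown as complex spheroids with endothelial and stromal cells, exposed to drug combinations. Top concentration at or near clinical Cmax (else 10 microM), diluted in half-log increments.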

[1] = second compound 0.0316 µM, first compound 0.0316 µM
[2] = second compound 0.0316 µM, first compound 0.1 µM
[3] = second compound 0.0316 µM, first compound 0.316 µM
[4] = second compound 0.0316 µM, first compound 1 µM
[5] = second compound 0.0316 µM, first compound 3.16 µM
[6] = second compound 0.0316 µM, first compound 10 µM
[7] = second compound 0.1 µM, first compound 0.0316 µM
[8] = second compound 0.1 µM, first compound 0.1 µM
[9] = second compound 0.1 µM, first compound 0.316 µM
[10] = second compound 0.1 µM, first compound 1 µM
[11] = second compound 0.1 µM, first compound 3.16 µM
[12] = second compound 0.1 µM, first compound 10 µM
[13] = second compound 0.316 µM, first compound 0.0316 µM
[14] = second compound 0.316 µM, first compound 0.1 µM
[15] = second compound 0.316 µM, first compound 0.316 µM
[16] = second compound 0.316 µM, first compound 1 µM
[17] = second compound 0.316 µM, first compound 3.16 µM
[18] = second compound 0.316 µM, first compound 10 µM
[19] = second compound 1 µM, first compound 0.0316 µM
[20] = second compound 1 µM, first compound 0.1 µM
[21] = second compound 1 µM, first compound 0.316 µM
[22] = second compound 1 µM, first compound 1 µM
[23] = second compound 1 µM, first compound 3.16 µM
[24] = second compound 1 µM, first compound 10 µM
[25] = second compound 3.16 µM, first compound 0.0316 µM
[26] = second compound 3.16 µM, first compound 0.1 µM
[27] = second compound 3.16 µM, first compound 0.316 µM
[28] = second compound 3.16 µM, first compound 1 µM
[29] = second compound 3.16 µM, first compound 3.16 µM
[30] = second compound 3.16 µM, first compound 10 µM
[31] = second compound 10 µM, first compound 0.0316 µM
[32] = second compound 10 µM, first compound 0.1 µM
[33] = second compound 10 µM, first compound 0.316 µM
[34] = second compound 10 µM, first compound 1 µM
[35] = second compound 10 µM, first compound 3.16 µM
[36] = second compound 10 µM, first compound 10 µM
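Also: spheroids exposed to the agents for one week before reading.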
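For viability, T/C in this document: percent of vehicle DMSO control viability so 100% = untreated growth.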

CC1COCCN1c1cc(C2(O)CC3CCC(C2)O3)c2cnn(-c3ccn[nH]3)c2n1 (stereo not drawn) + Cc1cnc(CNC(=O)c2c(=O)c3ccc(N4CCCN(C)CC4)nc3n3c2sc2ccccc23)cn1
active: viability, T/C [12] 9.84% | viability, T/C [18] 7.21% | viability, T/C [24] 4.57% | viability, T/C [29] 0.25% | viability, T/C [30] 0.64% | viability, T/C [32] 0.4% | viability, T/C [33] 0.37% | viability, T/C [34] 0.29% | viability, T/C [35] 0.34% | viability, T/C [36] 0.24%
> 7.50: pIC50 (second compound 0.1 µM) | pIC50 (second compound 0.316 µM) | pIC50 (second compound 1 µM) | pIC50 (second compound 3.16 µM) | pIC50 (second compound 10 µM)
inactive: viability, T/C [1] 59.9% | viability, T/C [2] 31.8% | viability, T/C [3] 35.8% | viability, T/C [4] 36.6% | viability, T/C [5] 22.5% | viability, T/C [6] 9.67% | viability, T/C [7] 46% | viability, T/C [8] 38% | viability, T/C [9] 32.8% | viability, T/C [10] 34.7% | viability, T/C [11] 19.8% | viability, T/C [13] 41% | viability, T/C [14] 39.7% | viability, T/C [15] 33% | viability, T/C [16] 36.4% | viability, T/C [17] 20.9% | viability, T/C [19] 44.6% | viability, T/C [20] 41.9% | viability, T/C [21] 35.9% | viability, T/C [22] 24% | viability, T/C [23] 12.7% | viability, T/C [25] 34.8% | viability, T/C [26] 37.9% | viability, T/C [27] 25.5% | viability, T/C [28] 7.29% | viability, T/C [31] 14.6%
7.37: pIC50 (second compound 0.0316 µM)

CC1COCCN1c1cc(C2(S(C)(=N)=O)CC2)nc(-c2ccnc3[nH]ccc23)n1 (stereo not drawn) + Cc1cnc(CNC(=O)c2c(=O)c3ccc(N4CCCN(C)CC4)nc3n3c2sc2ccccc23)cn1
5.49: pIC50 (second compound 1 µM)
5.43: pIC50 (second compound 0.1 µM)
5.54: pIC50 (second compound 0.316 µM)
inactive: viability, T/C [1] 79.9% | viability, T/C [2] 93.9% | viability, T/C [3] 71.1% | viability, T/C [4] 62.4% | viability, T/C [5] 87.8% | viability, T/C [6] 36.9% | viability, T/C [7] 74% | viability, T/C [8] 61.2% | viability, T/C [9] 72.7% | viability, T/C [10] 68.7% | viability, T/C [11] 53.1% | viability, T/C [12] 30.2% | viability, T/C [13] 83.1% | viability, T/C [14] 63.8% | viability, T/C [15] 62.8% | viability, T/C [16] 55.9% | viability, T/C [17] 57.8% | viability, T/C [18] 38.1% | viability, T/C [19] 65.2% | viability, T/C [20] 57.2% | viability, T/C [21] 58.7% | viability, T/C [22] 60.9% | viability, T/C [23] 49.3% | viability, T/C [24] 32.4% | viability, T/C [25] 48.8% | viability, T/C [26] 49.9% | viability, T/C [27] 51.8% | viability, T/C [28] 39.9% | viability, T/C [29] 49.2% | viability, T/C [30] 26.4% | viability, T/C [31] 41.7% | viability, T/C [32] 30.1% | viability, T/C [33] 34.1% | viability, T/C [34] 15.1% | viability, T/C [35] 33.7% | viability, T/C [36] 6%
5.16: pIC50 (second compound 0.0316 µM)
> 7.50: pIC50 (second compound 3.16 µM) | pIC50 (second compound 10 µM)

COc1ccc([C@@H](O)c2cc(-c3ncnc4cc(N5CCOCC5)ccc34)c(F)cc2Cl)nn1 + Cc1cnc(CNC(=O)c2c(=O)c3ccc(N4CCCN(C)CC4)nc3n3c2sc2ccccc23)cn1
6.10: pIC50 (second compound 1 µM)
inactive: viability, T/C [1] 105% | viability, T/C [2] 80.9% | viability, T/C [3] 66.6% | viability, T/C [4] 66.5% | viability, T/C [5] 52.3% | viability, T/C [6] 33.9% | viability, T/C [7] 67% | viability, T/C [8] 70.4% | viability, T/C [9] 64.3% | viability, T/C [10] 51.7% | viability, T/C [11] 43.5% | viability, T/C [12] 33% | viability, T/C [13] 63.2% | viability, T/C [14] 63.5% | viability, T/C [15] 62.7% | viability, T/C [16] 49.1% | viability, T/C [17] 35.3% | viability, T/C [18] 25.5% | viability, T/C [19] 65.9% | viability, T/C [20] 61.6% | viability, T/C [21] 51.6% | viability, T/C [22] 46.1% | viability, T/C [23] 42% | viability, T/C [24] 14.2% | viability, T/C [25] 50% | viability, T/C [26] 36.8% | viability, T/C [27] 41.9% | viability, T/C [28] 31.6% | viability, T/C [29] 20.9% | viability, T/C [31] 35.2% | viability, T/C [32] 40.2% | viability, T/C [33] 19.1%
5.84: pIC50 (second compound 0.1 µM)
5.98: pIC50 (second compound 0.316 µM)
active: viability, T/C [30] 0.39% | viability, T/C [34] 0.71% | viability, T/C [35] 0.33% | viability, T/C [36] 0.26%
> 7.50: pIC50 (second compound 3.16 µM) | pIC50 (second compound 10 µM)
5.57: pIC50 (second compound 0.0316 µM)

O=C(c1cc(Cc2n[nH]c(=O)c3ccccc23)ccc1F)N1CCN(C(=O)C2CC2)CC1 + Cc1cnc(CNC(=O)c2c(=O)c3ccc(N4CCCN(C)CC4)nc3n3c2sc2ccccc23)cn1
inactive: viability, T/C [1] 82.4% | viability, T/C [2] 89.4% | viability, T/C [3] 73% | viability, T/C [4] 68.7% | viability, T/C [5] 84.4% | viability, T/C [6] 63.2% | viability, T/C [7] 70.9% | viability, T/C [8] 75.6% | viability, T/C [9] 63.8% | viability, T/C [10] 63.1% | viability, T/C [11] 63% | viability, T/C [12] 67.8% | viability, T/C [13] 57% | viability, T/C [14] 60.9% | viability, T/C [15] 68.1% | viability, T/C [16] 65.2% | viability, T/C [17] 58.8% | viability, T/C [18] 49.1% | viability, T/C [19] 62.2% | viability, T/C [20] 51.3% | viability, T/C [21] 55.7% | viability, T/C [22] 54.1% | viability, T/C [23] 72.3% | viability, T/C [24] 56% | viability, T/C [25] 58.1% | viability, T/C [26] 57.8% | viability, T/C [27] 67.9% | viability, T/C [28] 53.2% | viability, T/C [29] 57.3% | viability, T/C [30] 48.9% | viability, T/C [31] 41.5% | viability, T/C [32] 49.6% | viability, T/C [33] 40.6% | viability, T/C [34] 56.8% | viability, T/C [35] 73.1% | viability, T/C [36] 47.3%
5.04: pIC50 (second compound 0.316 µM)
< 5.00: pIC50 (second compound 0.0316 µM) | pIC50 (second compound 0.1 µM) | pIC50 (second compound 1 µM) | pIC50 (second compound 3.16 µM)
> 7.50: pIC50 (second compound 10 µM)
